The record followed here is publication PMC6272341, “Synthesis and Biological Evaluation of N-Alkoxyphenyl-3-hydroxynaphthalene-2-carboxanilides” (Molecules, 2015).

Series [1] concerns clinical isolate of M. avium subsp. paratuberculosis CIT03. Put plainly: In vitro antimycobacterial evaluation, alamarBlue (MIC). In kind it is cell-based. As to conditions: Mycobacterium avium, 264 h, read-out: MIC MAP.
Series [2] has as its system photosynthetic electron transport in spinach chloroplasts. Put plainly: Inhibition of photosynthetic electron transport (PET), DCPIP photoreduction (Hill reaction). In kind it is biochemical, spinach (Spinacia oleracea L.). As for the experimental part:
The PET inhibiting activity of the compounds was expressed by IC50 values. […] The aqueous solubility of the para-substituted compounds was limited; therefore IC50 values could not be determined due to precipitation of compounds during experiment. […]
Chloroplasts were prepared from spinach (Spinacia oleracea L.) according to Masarovicova and Kralova. The inhibition of photosynthetic electron transport (PET) in spinach chloroplasts was determined spectrophotometrically (Genesys 6, Thermo Scientific Corporation), using an artificial electron acceptor 2,6-dichlorophenol-indophenol (DCPIP) according to Kralova et al., and the rate of photosynthetic electron transport was monitored as a photoreduction of DCPIP. The measurements were carried out in phosphate buffer (20.0 mM, pH 7.2) containing sucrose (0.4 M), MgCl2 (5.0 mM) and NaCl (15.0 mM). The chlorophyll content was 30 mg/L in these experiments and the samples were irradiated (~100 W/m^2 with 10 cm distance) with a halogen lamp (250 W) using a 4 cm water filter to prevent warming of the samples (suspension temperature 22 °C). The studied compounds were dissolved in DMSO due to their limited aqueous solubility. The applied DMSO concentration (up to 4%) had negligible effect on the photochemical activity in isolated spinach chloroplasts (observed differences in DCPIP photoreduction due DMSO addition were within experimental error). The inhibitory efficiency of the studied compounds was expressed by IC50 values, i.e., by molar concentration of the compounds causing 50% decrease in DCPIP photoreduction relative to the untreated control. […] All reagents used in this study were of analytical grade and were purchased from Sigma.

The next series relates to S. aureus ATCC 29213. Put plainly: In vitro antibacterial susceptibility testing, broth dilution micro-method (MIC). As to conditions: Staphylococcus aureus, ATCC29213, 24 h, read-out: MIC SA.
In series [3] the test system is methicillin-resistant S. aureus clinical isolate SA 630. The description is as above. As to conditions: 24 h; for MIC: Staphylococcus aureus, MRSA, read-out: MIC MRSA SA 630, clinical isolate MRSA SA 630, 37 °C, MH broth.
Series [4] relates to methicillin-resistant S. aureus clinical isolate MRSA 63718. The series is described as above. Conditions: for MIC: Staphylococcus aureus, MRSA, read-out: MIC MRSA 63718, clinical isolate MRSA 63718.
The subject of series [5] is methicillin-resistant S. aureus clinical isolate SA 3202. The description is as above. As to conditions: 24 h; for MIC: Staphylococcus aureus, MRSA, read-out: MIC MRSA 3202, clinical isolate MRSA 3202, 37 °C, MH broth.
Series [6] concerns M. tuberculosis H37Ra ATCC 25177. Put plainly: In vitro antimycobacterial evaluation, alamarBlue (MIC). In kind it is cell-based. As to conditions: Mycobacterium tuberculosis, 168 h, read-out: MIC MT. As for the experimental part: The evaluation of the in vitro antimycobacterial activity of the compounds was performed against M. tuberculosis H37Ra ATCC 25177 [25] and clinical isolate of M. avium subsp. paratuberculosis CIT03 [26], see Table 1. The activity of compounds was expressed as the minimum inhibitory concentration (MIC) that is defined for mycobacteria as a 90% or greater (IC90) reduction of growth in comparison with the control. The MIC/IC90 value is routinely and widely used in bacterial assays, being a standard detection limit according to the Clinical and Laboratory Standards Institute.
Mycobacterium tuberculosis H37Ra ATCC 25177 and well characterised clinical isolate M. avium subsp. paratuberculosis CIT03 were grown in Middlebrook broth (MB), supplemented with Oleic-Albumin-Dextrose-Catalase supplement (Becton Dickinson, Oxford, UK) and mycobactin J (2 μg/mL). Identification of these isolates was performed using biochemical and molecular protocols. At log phase growth, a culture sample (10 mL) was centrifuged at 15,000 rpm/20 min using a bench top centrifuge (Model CR 4-12, Jouan Inc., Winchester, VA, USA). Following removal of the supernatant, the pellet was washed in fresh Middlebrook 7H9GC broth and re-suspended in fresh supplemented MB (10 mL). The turbidity was adjusted to match McFarland standard No. 1 (3 × 10^8 cfu) with MB broth. A further 1:20 dilution of the culture was then performed in MB broth. The antimicrobial susceptibility of all three mycobacterial species was investigated in a 96-well plate format. In these experiments, sterile deionised water (300 µL) was added to all outer-perimeter wells of the plates to minimize evaporation of the medium in the test wells during incubation. Sample wells were composed of 100 µL of test compound dilution and 100 µL of the bacterial stock being tested against. Dilutions of each compound were prepared in duplicate. For all synthesized compounds, final concentrations ranged from 1000 μg/mL to 8 μg/mL. All compounds were prepared in DMSO and subsequent dilutions were made in supplemented MB. The plates were sealed with parafilm and incubated at 37 °C, for 7 days in the case of M. tuberculosis and 11 days in the case of M. avium subsp. paratuberculosis. Following incubation, a 10% addition of alamarBlue (AbD Serotec, Kidlington, UK) was mixed into each well and readings at 570 nm and 600 nm were taken, initially for background subtraction and subsequently after 24 h re-incubation. The background subtraction is necessary for strongly coloured compounds, where the colour may interfere with the interpretation of any colour change. For non-interfering compounds, a blue colour in the well was interpreted as an absence of growth and a pink colour was scored as growth. […] The MIC value is routinely and widely used in bacterial assays and is a standard detection limit according to the Clinical and Laboratory Standards Institute (CLSI,). Rifampicin (Sigma-Aldrich) was used as the standard as it is clinically used antimycobacterial drugs.
Background: Resazurin is reduced to fluorescent resorufin, in cell work by metabolically active cells.

Series [7] relates to human monocytic leukemia THP-1 cells. Conditions: 24 h.
In series [8] the test system is M. tuberculosis H37Ra ATCC 25177. Put plainly: MTT assay of mycobacterial viability. In kind it is cell-based. As to conditions: Mycobacterium tuberculosis, 168 h; at the lowest tested concentration 8 µg/mL, ca. 24 µM; 7 days. How it is done:
The MTT assay is a well-characterized method of assessing cell growth through measurement of respiration. For the purpose of this assay, an MTT measured viability of M. tuberculosis H37Ra of less than 70% after exposure to the MIC of each tested compound was considered a positive result.
For the MTT assay, the outer wells of a 96-well plate were filled with 200 µL of sterile water, and the inner wells were filled with 100 µL of the tested compound at the concentration to be examined. Compounds were prepared as previously stated and diluted in Middlebrook media to achieve the desired concentration. Mycobacterium tuberculosis H37Ra ATCC 25177 was suspended in ODAC supplemented Middlebrook broth at a MacFarland standard of 1.0 and then diluted through a 1:20, using Middlebrook broth as a diluent. The diluted mycobacteria (100 µL) were added to each well containing the compound to be tested. A negative growth control was composed of 100 µL of DMSO and 100 µL of media, and the diluted mycobacteria in broth absent of inhibiting compounds were used as a positive growth control. All compounds and controls were prepared in triplicate. Plates were incubated at 37 °C for 7 days. After the incubation period, 10% well volume of MTT reagent was mixed into each well and incubated at 37 °C for 24 h. The reagent and media were then aspirated from the wells, to which 50 µL 99% isopropanol was then added, and plates were read at 570 nm. The absorbance readings from the cells, grown in the presence of the tested compounds, were compared with uninhibited cell growth (using DMSO as the blank) to determine the relative percent viability. The percent viability was determined through the MTT assay. The percent viability is calculated through comparison of a measured value against that of the uninhibited control: %viability = OD570E/OD570P × 100, where OD570E is the reading from the compound-exposed cells, while OD570P is the reading from the uninhibited cells (positive control). Cytotoxic potential is determined by a percent viability of <70%.
For orientation: Formazan colour is commonly taken as a measure of viable cells.

[9] abbreviates: M. tuberculosis H37Ra, 7 days, 37 °C, alamarBlue, MIC/IC90.
Setting [10] is: M. avium subsp. paratuberculosis CIT03, 11 days, 37 °C, alamarBlue, MIC/IC90.

Each structure is given as a SMILES string. Values after ≈ are worked out from the molar mass of the structure shown. Read-outs that look alike come from different tables or passages of the source.

A word on the MIC: it is the least concentration at which growth counts as inhibited. For orientation: IC50 means the midpoint of a concentration-inhibition curve. `CCOc1ccccc1NC(=O)c1cc2ccccc2cc1O` [Compound 4a, N-(2-Ethoxyphenyl)-3-hydroxynaphthalene-2-carboxamide]: the MIC was 813 µM (≈ 250 µg/mL) in [1]; 832 µM (≈ 256 µg/mL) in the series on S. aureus ATCC 29213; 832 µM (≈ 256 µg/mL) in [3]; 832 µM (≈ 256 µg/mL) in series [4] (24 h, 24 h, 37 °C, MH broth); 832 µM (≈ 256 µg/mL) in series [5]; 813 µM (≈ 250 µg/mL) in series [6] (setting [9]). This compound came in with an IC50 in series [2] of 76.1 µM. Besides, the LD50 in series [7] is >30 µM.

Take `CCCCOc1ccccc1NC(=O)c1cc2ccccc2cc1O` [Compound 6a, N-(2-Butoxyphenyl)-3-hydroxynaphthalene-2-carboxamide]: the MIC was found to be 745 µM (≈ 250 µg/mL) in series [1] (setting [10]); 763 µM (≈ 256 µg/mL) with S. aureus ATCC 29213; 763 µM (≈ 256 µg/mL) in series [3]; 763 µM (≈ 256 µg/mL) in series [4] (24 h, 24 h, 37 °C, MH broth); 763 µM (≈ 256 µg/mL) in series [5]; 373 µM (≈ 125 µg/mL) in series [6] (setting [9]). The half-inhibitory concentration (IC50) in [2] was determined as 182 µM. The LD50 in series [7] is recorded as >30 µM.

For the compound `CCCCOc1cccc(NC(=O)c2cc3ccccc3cc2O)c1` [Compound 6b, N-(3-Butoxyphenyl)-3-hydroxynaphthalene-2-carboxamide], the minimum inhibitory concentration (MIC) in series [1] was 745 µM (≈ 250 µg/mL); with S. aureus ATCC 29213, 763 µM (≈ 256 µg/mL); in [3], 763 µM (≈ 256 µg/mL); in [4] (24 h, 24 h, 37 °C, MH broth), 763 µM (≈ 256 µg/mL); in [5], 763 µM (≈ 256 µg/mL); in series [6] (setting [9]), 745 µM (≈ 250 µg/mL). The IC50 in series [2] turned out to be 7.8 µM. For the same compound, the LD50 in [7] amounted to 16.5 ± 0.8 µM.

Consider `CC(C)Oc1ccccc1NC(=O)c1cc2ccccc2cc1O` [Compound 7a, 3-Hydroxy-N-[2-(prop-2-yloxy)phenyl]naphthalene-2-carboxamide], for which the MIC turned out to be 778 µM (≈ 250 µg/mL) in series [1] (setting [10]); 796 µM (≈ 256 µg/mL) in the series on S. aureus ATCC 29213; 796 µM (≈ 256 µg/mL) in series [3]; 796 µM (≈ 256 µg/mL) in [4] (24 h, 24 h, 37 °C, MH broth); 796 µM (≈ 256 µg/mL) in series [5]; 389 µM (≈ 125 µg/mL) in series [6] (setting [9]). Also, the IC50 in series [2] amounted to 138 µM. Also, the LD50 in series [7] is >30 µM.

For orientation: viability means a read-out of living cells in per cent, often relative to untreated cells. For the compound `CC(C)Oc1cccc(NC(=O)c2cc3ccccc3cc2O)c1` [Compound 7b, 3-Hydroxy-N-[3-(prop-2-yloxy)phenyl]naphthalene-2-carboxamide], the MIC in series [1] (setting [10]) was determined as 778 µM (≈ 250 µg/mL); in the series on S. aureus ATCC 29213, 796 µM (≈ 256 µg/mL); in series [3], 796 µM (≈ 256 µg/mL); in series [4] (24 h, 24 h, 37 °C, MH broth), 796 µM (≈ 256 µg/mL); in series [5], 796 µM (≈ 256 µg/mL); in series [6], 24 µM (≈ 7.71 µg/mL). The compound further returned an IC50 in series [2] of 6.9 µM. This compound also came in with a viability at 8 µg/mL in [8] of 10.7%.

For the compound `CCC(C)Oc1ccccc1NC(=O)c1cc2ccccc2cc1O` (stereo not shown) [Compound 8a, N-[2-(But-2-yloxy)phenyl]-3-hydroxynaphthalene-2-carboxamide], the MIC in series [1] (setting [10]) is 89 µM (≈ 29.9 µg/mL); in the series on S. aureus ATCC 29213, 5.9 µM (≈ 1.98 µg/mL); in series [3], 12 µM (≈ 4.02 µg/mL); in series [4] (24 h, 24 h, 37 °C, MH broth) it was 12 µM (≈ 4.02 µg/mL); in [5], 12 µM (≈ 4.02 µg/mL); in series [6] (setting [9]) it was 23 µM (≈ 7.71 µg/mL). For the same compound, half-maximal inhibition in series [2] (IC50) was put at 134 µM. The “MIC MRSA SA 630” value in series [3] (clinical isolate MRSA SA 630, 37 °C, MH broth) stood at 11.9 µM (≈ 3.99 µg/mL). In series [4] (antibacterial activity against MRSA strains versus ampicillin), the “activity fold higher than that of ampicillin” value is on record as ~4 fold. Also, the “MIC MRSA 63718” value in series [4] (clinical isolate MRSA 63718, 24 h, 37 °C, MH broth) worked out at 11.9 µM (≈ 3.99 µg/mL). Besides, the “MIC MRSA 3202” value in series [5] (clinical isolate MRSA 3202, 37 °C, MH broth) stood at 11.9 µM (≈ 3.99 µg/mL). Moreover, the viability at 8 µg/mL in series [8] came out at 23.9%.

Consider `CCC(C)Oc1cccc(NC(=O)c2cc3ccccc3cc2O)c1` (stereo not shown) [Compound 8b, N-[3-(But-2-yloxy)phenyl]-3-hydroxynaphthalene-2-carboxamide], for which the MIC in [1] (setting [10]) was found to be 745 µM (≈ 250 µg/mL); in the series with S. aureus ATCC 29213, 763 µM (≈ 256 µg/mL); in series [3], 763 µM (≈ 256 µg/mL); in series [4] (24 h, 24 h, 37 °C, MH broth) it was 763 µM (≈ 256 µg/mL); in series [5] it was 763 µM (≈ 256 µg/mL); in series [6] (setting [9]), 23 µM (≈ 7.71 µg/mL). In series [2], this compound had an IC50 of 8.3 µM. In series [7], this compound had an LD50 of 2.7 ± 0.7 µM. This compound gave a viability at 8 µg/mL in [8] of 21.7%.
